{"source": "patent US9598677B2", "about": "“Use of human biliverdin reductase and fragments thereof for the treatment of protein kinase C-delta and ERK related conditions” (University of Rochester, priority 2009, dated 2017)", "key": {"recombinant human PKC-δ": {"tested_on": "recombinant human PKC-δ", "test": "PKC-δ kinase assay in vitro (p81 filter / autoradiography)", "assay_type": "biochemical", "method": "Measurement of PKC-δ activity: In vitro kinase activity assays were performed with active recombinant human PKC-δ kinase (as a GST fusion protein). PKC-δ assay in vitro was performed using 5 ng purified enzyme in a 50 μl assay containing 50 mM HEPES pH 7.4, 10 mM MgCl2, 0.2 mM DTT, sonicated lipid activators (0.5 μg phosphatidylserine and 0.05 μg diacylglycerol) or lipid activators plus PMA (as indicated in appropriate experiments) and PKC-δ substrates. The reaction was started by the addition of 50 μM ATP labeled with 5 μCi [γ-^32P]-ATP. Incubation was performed for 15 min at 30° C., unless otherwise stated. The reaction was terminated on ice, either by the addition of Laemmli buffer followed by SDS-PAGE, transferred to PVDF membrane, and autoradiography, or by the addition of 1 volume 10% phosphoric acid for p81 transfer as described below. For autophosphorylation of PKC-δ 20 μM ATP was used to start the 40-min reaction.\nWhen hBVR or its mutants were tested for their effect on PKC-δ activity, they were pre-incubated for 5 min at room temperature with the PKC prior to substrate addition. The hBVR-derived peptides were used at concentrations indicated in appropriate figures.\nWhen hBVR or its mutants were assayed as the sole substrates for PKC, the incubation conditions were as described above and the incubation was for 40 min at 30° C. unless specified otherwise. The reaction was terminated by the addition of Laemmli buffer, and the reaction products were detected by SDS-PAGE, transfer to PVDF membrane, and autoradiography.\nMeasurement of PKC-δ activity: PKC-δ assay in vitro was performed using 0.1 ng/μl purified recombinant human PKC-δ kinase with reaction conditions specified by the manufacturer. Effector molecules such as hBVR or peptides were added 5 min prior to substrate. The reaction was started by the addition of [γ-^32P]-ATP (Lerner-Marmarosh et al., “Human Biliverdin Reductase: A Member of the Insulin Receptor Substrate Family with Serine/Threonine/Tyrosine Kinase Activity,” Proc. Natl. Acad. Sci. U.S.A. 102(20):7109-7114 (2005), which is hereby incorporated by reference in its entirety). Reaction products were detected either by gel electrophoresis and autoradiography or by the p81 filter assay. PKC-δ activity on agarose beads was also measured. Cell lysates were immunoprecipitated with anti-PKC-δ antibody followed by protein A/G agarose. The immunoprecipitates were used in kinase reactions containing 50 μM PKC-δ specific peptide substrate as above; incorporation of ^32P was measured by p81 method."}, "PKC-δ": {"target": "PKC-δ (Homo sapiens, UniProt Q05655)", "sequence (Q05655 whole entry)": "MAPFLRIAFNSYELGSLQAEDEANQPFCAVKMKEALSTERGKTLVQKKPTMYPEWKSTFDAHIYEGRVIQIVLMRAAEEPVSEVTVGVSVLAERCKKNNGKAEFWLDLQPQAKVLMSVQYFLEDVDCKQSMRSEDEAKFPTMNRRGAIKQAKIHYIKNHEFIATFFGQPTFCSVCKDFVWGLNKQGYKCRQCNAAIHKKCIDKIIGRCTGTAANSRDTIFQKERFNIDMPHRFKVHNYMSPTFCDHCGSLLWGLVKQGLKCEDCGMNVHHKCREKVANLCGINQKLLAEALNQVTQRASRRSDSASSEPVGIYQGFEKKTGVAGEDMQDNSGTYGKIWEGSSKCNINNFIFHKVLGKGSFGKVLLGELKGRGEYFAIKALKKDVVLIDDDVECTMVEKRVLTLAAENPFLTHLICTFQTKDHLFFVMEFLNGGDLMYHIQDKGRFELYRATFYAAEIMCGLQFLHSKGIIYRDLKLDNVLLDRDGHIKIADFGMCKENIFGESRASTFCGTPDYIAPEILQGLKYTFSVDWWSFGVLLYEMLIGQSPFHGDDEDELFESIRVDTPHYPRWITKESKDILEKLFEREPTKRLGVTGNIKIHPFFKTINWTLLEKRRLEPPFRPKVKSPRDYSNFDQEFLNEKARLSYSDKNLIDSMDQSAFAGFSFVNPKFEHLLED", "test": "PKC-δ activity assay in situ in 293A cells", "assay_type": "cell-based", "parameters": "The human PKC-δ open reading frame was also cloned in the same vectors; expressed in transfected cells; host or cells: HEK 293A", "settings": "myristoylated peptide, last 2 h of starvation, FIG. 5B", "method": "The PKC-δ activity assay in situ was performed by a modification of procedures detailed by Williams and Schrier (Williams et al., Glucose-Induced Protein Kinase C Activity Regulates Arachidonic Acid Release and Eicosanoid Production by Cultured Glomerular Mesangial Cells,” J. Clin. Invest. 92:2889-2896 (1993), which is hereby incorporated by reference in its entirety). Cells were seeded into 48-well plates and transfected with 0.1 μg/well pcDNA3-hBVR. After 24 h, the medium was replaced with a starvation medium (0.1% serum) and incubation continued for another 24 h to synchronize cells. In some wells, PKC inhibitor Rottlerin (20 μM) was added 30 min before addition of PMA (100 nM) for 15 min. In some wells, hBVR-derived peptides were introduced to cells in their myristoylated form. Cells were washed with medium and incubated for 10 min at 30° C. in 50 μl of kinase assay buffer (137 mM NaCl, 5.4 mM KCl, 10 mM MgCl2, 0.3 mM Na2HPO4, 0.4 mM KH2PO4, 25 mM β-glycerophosphate, 5.5 mM D-glucose, 5 mM EGTA, 1 mM CaCl2, 20 mM HEPES (pH 7.2), 50 μg/ml digitonin, 120 μg/ml of PKC-δ specific substrate (ARRKRKGSFFGG; SEQ ID NO: 52) and 100 μM ATP labeled with 10 μCi/ml [γ-^32P]-ATP). The reaction was stopped with the addition of 25 μl of ice-cold 30% (wt/vol) TCA. The TCA-soluble fraction samples were transferred to p81 phospho-cellulose filters. […]"}}, "note": "Ends that are not written are not given here. * marks the point of attachment. Myristoyl = CCCCCCCCCCCCCC(=O)*"}
{"sequence": "KRNRYLSF (Myristoyl-KRNRYLSF)", "values": [{"measurement": "inhibition of phosphorylation of the commercial substrate", "setting": "recombinant human PKC-δ; 50 μM substrate/10 μM inhibitor, FIG. 5A", "result": "More than 90%"}, {"measurement": "sensitivity of PKC-δ activity to the inhibitory peptide", "setting": "recombinant human PKC-δ; MBP substrate, increasing peptide concentrations, FIG. 5D", "result": "most sensitive"}, {"measurement": "PKC-δ activity in cells transfected with pcDNA-PKC-δ and stimulated with PMA", "setting": "PKC-δ", "result": "inhibitory activity"}]}
